Data published in EP2724723A1, “Tegaserod for use in the treatment of nerve injuries” (Universitätsklinikum Hamburg-Eppendorf, priority 2012, dated 2014).

Tests used:
735 anti PSA antibody = test: Screening ELISA of the NIH Clinical Collection 1 Library for organic PSA mimetics; assay type: binding; conditions: 10 µM of library compound pre-incubated with 735 antibody; repeated three times
Description: To identify organic PSA mimetics the NIH Clinical Collection 1 Library was screened. PSA mimicking peptide (NTHTDPYIYPIDC; Mehanna et al., (2009); Brain 132 (Pt 6): 1449-1462.) coupled to catalase (3 µg/ml; 25 µl/well) was immobilized on the surface of 384-well flat bottom microtiter plates with high binding surface (Corning Life Sciences, Amsterdam, The Netherlands). Wells were washed with […], blocked with 1% bovine serum albumin for 1 h at room temperature. 735 anti PSA antibody (0.1 µg/ml; 25 µl/well) was incubated with PBS, PBS containing DMSO solvent control or PBS containing 10 µM of the organic compounds from the library for 1 h at room temperature and then added to the wells coated with […] coupled to catalase. As control for positive competition, 735 antibody was incubated with the PSA mimicking peptide (10 µM). After incubation for 1 h, wells were washed 10 times with PBS containing 0.05% Tween-20 (PBST), HRP-coupled secondary antibody (1:5,000 in PBS) was added for 1 h and after 10 more washes with PBST, binding of antibody was visualized by incubating wells with 25 µl of 0.4 mg/ml o-phenylenediamine dihydrochloride (Thermo Scientific) for 15 min. The reaction was stopped by addition of 25 µl 2.5 M H2SO4 and quantified using an ELISA reader (EnVision with Plateworks software, Perkin Elmer, Hamburg, Germany). […]

[1] = system: PSA specific monoclonal antibody 735; test: Surface plasmon resonance competition experiment (BIAcore 3000); assay type: binding; conditions: compared to antibody not mixed with tegaserod; antibody 10 nM pre-incubated with 1-30 µM compound; Figure 1B
Description: The running buffer was phosphate-buffered saline (PBS, pH 7.4). PSA mimicking peptide coupled to catalase was covalently immobilized to CM5 sensor chips (carboxymethyl dextran; GE Healthcare Europe GmbH) via primary amino groups, using standard coupling protocols (Karlsson et al. (1991); J. Immunol. Methods 145 (1-2): 229-240. In brief, the sensor surface was activated by a 7-min pulse of 0.2 M N-ethyl-N-(3-dimethylaminopropyl) carbodiimide and 50 mM N-hydroxysuccinimide. The PSA peptide solution (10 nM in 10 mM sodium acetate, pH 5.2) was then injected for 5-10 min. Ethanolamine (1 M, pH 8.5) was used to block remaining activated carboxyl groups. Ligand densities of 100-150 fmol/mm^2 were reached. Immobilized control peptide (10 nM PSA scrambled peptide coupled to catalase) was used as a reference surface. […] The data were analyzed using the BIAevaluation 3.0 software. All sensorgrams were corrected for background and bulk refractive index by subtraction of the reference.
To confirm that tegaserod binds specifically to antibody 735, a competition experiment was performed. First, the PSA specific monoclonal antibody 735 (10 nM) was pre-incubated for 1 h at room temperature with different molar concentrations (1, 2, 5, 8, 15 and 30 µM) of tegaserod or control compound. Then the antibody/organic compound solutions were injected ([…]) to the PSA peptide-coupled chip. […]

[2] = system: murine cerebellar granule neurons (cGNs), Schwann cells, and motoneurons; test: In vitro neurite/process outgrowth, statements covering all cell types; assay type: cell-based, C57BL/6J mice
Description: (§1) Primary cultures of cerebellar neurons or Schwann cells were prepared from cerebellum or dorsal root ganglia of 7-day-old C57BL/6J mice as described in Mehanna et al. (2009), Brain, 132 (Pt 6): 1449-62 and Loers et al. (2005), J. Neurochem., 92(6): 1463-76. Motoneurons were prepared from E14 C57BL/6J mice as described in Simova et al. (2006), Ann. Neurol., 60(4): 430-437. In brief, 48-well plates were coated with 0.01% poly-L-lysine (PLL) or poly-L-ornithine (PLO) overnight at 4°C, washed twice with water and air-dried. Directly before use, plates were washed twice with PBS, and Schwann cells, cerebellar neurons (PLL) or motoneurons (PLO) were seeded at a density of 1.25 x 10^4 (Schwann cells and motoneurons) or 2.5 x 10^4 cells (cerebellar neurons) per well in 250 µl of corresponding serum-free culture medium. Soluble organic compounds were added to the culture 1 h after seeding in increasing concentrations. After maintenance for 24 h at 37°C, cells were fixed with 2.5% glutaraldehyde and stained with 1% methylene blue/toluidine blue in 1% borax. Morphological quantification of neurite or process lengths was performed as described in Mehanna et al. (2009), see above. Schwann cell processes and neurites of cerebellar neurons with a length of at least one cell body diameter were counted and total neurite or process length per cell was determined by counting 50 cells in each of two wells per experiment. At least three independent experiments were performed for each culture. Also, the activity of tegaserod with the PSA peptide mimic and the bacterial PSA analogue, colominic acid, on neurite and process extension experiments was compared.

[3] = system: motoneurons isolated from NCAM^-/- mice; test: In vitro neurite outgrowth of NCAM-deficient motoneurons; assay type: cell-based; conditions: tegaserod 100 nM; colominic acid 3 µM; PSA mimicking peptide 30 µM; Figure 2B
Description: as §1, with “After maintenance for 24 h at 37°C, cells were fixed with 2.5% glutaraldehyde and stained with 1% methylene blue/toluidine blue in 1% borax.” left out, “At least three independent experiments were performed for each culture. Also, the activity of tegaserod with the PSA peptide mimic and the bacterial PSA analogue, colominic acid, on neurite and process extension experiments was compared.” left out

[4] = system: cerebellar granule neurons (cGNs); test: In vitro neurite outgrowth of cerebellar granule neurons; assay type: cell-based, C57BL/6J mice; conditions: compared to control; Figure 2C, D
Description: as §1

## [H]/N=C(/NCCCCC)N/N=C/c1c[nH]c2ccc(OC)cc12 [tegaserod, (E)-but-2-enedioic acid; 1-[[(Z)-(5-methoxyindol-3-ylidene)methyl]amino]-2-pentylguanidine]
735 anti PSA antibody
  identification as organic compound that could potentially mimic PSA: could potentially mimic PSA
[1]
  disruption of the capability of mAb 735 to bind to the PSA peptide mimic bound to the chip surface: 80%
[2]; Mus musculus, Neuron, 24 h, dose-response curve, Figure 2A, read-out: concentration at which an effect on neurite and process extension was shown
  minimal effective concentration: 0.001 µM
[2]; all cell types, Figure 2A
  concentration of optimal effect on neurite and process extension: 100 nM
[2]; neurite and process extension of neurons and Schwann cells
  concentration of maximal stimulatory effects: 10 to 250 nM
[2]; neurons and Schwann cells
  effect of overdosing / higher concentrations (in words): the stimulatory effect was reduced or even abolished
  times more effective than colominic acid in stimulating process formation: about 20 times
  times more effective than the PSA mimicking peptide in stimulating process formation: about 200 times
[3]
  effect on neurite extension of NCAM^-/- motoneurons (in words): no enhancement in neurite extension
[4]
  effect on neurite outgrowth of cGNs (in words): significantly enhance neurite/process outgrowth compared to control
